ChEMBL document CHEMBL5131410, “Design and discovery of C2-fluoroalkyl iminothiazine dioxides as BACE inhibitors” (Bioorg Med Chem Lett, 2022)

Columns and labels:
Rattus norvegicus [1] = assay: Antialzheimer activity against in po dosed rat assessed as decrease in amyloid beta 40 in CSF measured after 3 hrs; type: functional
Rattus norvegicus [2] = assay: Antialzheimer activity against in po dosed rat assessed as plasma concentration required to 50 % decrease in amyloid beta 40 in CSF measured after 3 hrs; type: functional, organism-based
Rhesus monkey [3] = assay: Antialzheimer activity against in po dosed rhesus monkey assessed as decrease in amyloid beta 40 in CSF measured after 3 hrs; type: functional; conditions: Macaca mulatta
Rhesus monkey [4] = assay: Antialzheimer activity against in po dosed rhesus monkey assessed as plasma concentration required to 50 % decrease in amyloid beta 40 in CSF measured after 3 hrs; type: functional, organism-based; conditions: Macaca mulatta
Beta-secretase 1 [5] = molecular target: T1, Beta-secretase 1 (Homo sapiens, UniProt P56817); assay: Inhibition of BACE1 (unknown origin)
T1 sequence (P56817 whole entry): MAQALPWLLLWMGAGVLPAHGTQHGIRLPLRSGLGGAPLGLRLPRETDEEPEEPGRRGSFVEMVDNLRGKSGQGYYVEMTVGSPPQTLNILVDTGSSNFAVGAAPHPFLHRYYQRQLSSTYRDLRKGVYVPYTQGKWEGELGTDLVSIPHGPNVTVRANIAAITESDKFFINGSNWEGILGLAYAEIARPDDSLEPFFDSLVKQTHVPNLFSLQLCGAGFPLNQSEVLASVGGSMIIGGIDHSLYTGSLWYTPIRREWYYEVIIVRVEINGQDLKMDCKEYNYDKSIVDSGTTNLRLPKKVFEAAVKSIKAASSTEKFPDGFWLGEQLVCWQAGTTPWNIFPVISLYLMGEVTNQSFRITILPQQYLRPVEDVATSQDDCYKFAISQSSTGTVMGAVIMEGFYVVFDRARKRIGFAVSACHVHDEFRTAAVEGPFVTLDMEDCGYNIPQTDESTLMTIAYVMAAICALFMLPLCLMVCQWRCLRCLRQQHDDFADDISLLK

Beta-secretase 1 [6] = molecular target: T1, Beta-secretase 1; assay: Inhibition of BACE1 (unknown origin) expressed in HEK293 cells expressing human APP with Swedish and London familial AD mutation; type: cell-based
Rattus norvegicus [7] = assay: Antialzheimer activity against in rat assessed as decrease in amyloid beta 40 in CSF at 10 mg/kg, po and measured after 3 hrs relative to control; type: functional; design: scale not given: the % may be the effect or the level left
[8] = Dissociation constant, pKa of compound by UV-metric spectrophotometric analysis; type: physicochemical
MDR1 (human) = assay: Efflux ratio of apparent permeability across basolateral to apical membrane to apical to basolateral membrane in pig LLC-PK1 cells expressing human MDR1 at 1 uM; type: ADME, cell-based, Sus scrofa
MDR1 (rat) = assay: Efflux ratio of apparent permeability across basolateral to apical membrane to apical to basolateral membrane in pig LLC-PK1 cells expressing rat MDR1 at 1 uM; type: ADME, cell-based, Sus scrofa
[9] = Apparent permeability in pig LLC-PK1 cells; type: ADME, cell-based, Sus scrofa
[10] = molecular target: T2, Voltage-gated inwardly rectifying potassium channel KCNH2 (Homo sapiens, UniProt Q12809); assay: Displacement of MK499 from human ERG expressed in HEK membrane by radio ligand binding competition assay; type: toxicity, cell membranes, Cell membrane
T2 sequence (Q12809 whole entry): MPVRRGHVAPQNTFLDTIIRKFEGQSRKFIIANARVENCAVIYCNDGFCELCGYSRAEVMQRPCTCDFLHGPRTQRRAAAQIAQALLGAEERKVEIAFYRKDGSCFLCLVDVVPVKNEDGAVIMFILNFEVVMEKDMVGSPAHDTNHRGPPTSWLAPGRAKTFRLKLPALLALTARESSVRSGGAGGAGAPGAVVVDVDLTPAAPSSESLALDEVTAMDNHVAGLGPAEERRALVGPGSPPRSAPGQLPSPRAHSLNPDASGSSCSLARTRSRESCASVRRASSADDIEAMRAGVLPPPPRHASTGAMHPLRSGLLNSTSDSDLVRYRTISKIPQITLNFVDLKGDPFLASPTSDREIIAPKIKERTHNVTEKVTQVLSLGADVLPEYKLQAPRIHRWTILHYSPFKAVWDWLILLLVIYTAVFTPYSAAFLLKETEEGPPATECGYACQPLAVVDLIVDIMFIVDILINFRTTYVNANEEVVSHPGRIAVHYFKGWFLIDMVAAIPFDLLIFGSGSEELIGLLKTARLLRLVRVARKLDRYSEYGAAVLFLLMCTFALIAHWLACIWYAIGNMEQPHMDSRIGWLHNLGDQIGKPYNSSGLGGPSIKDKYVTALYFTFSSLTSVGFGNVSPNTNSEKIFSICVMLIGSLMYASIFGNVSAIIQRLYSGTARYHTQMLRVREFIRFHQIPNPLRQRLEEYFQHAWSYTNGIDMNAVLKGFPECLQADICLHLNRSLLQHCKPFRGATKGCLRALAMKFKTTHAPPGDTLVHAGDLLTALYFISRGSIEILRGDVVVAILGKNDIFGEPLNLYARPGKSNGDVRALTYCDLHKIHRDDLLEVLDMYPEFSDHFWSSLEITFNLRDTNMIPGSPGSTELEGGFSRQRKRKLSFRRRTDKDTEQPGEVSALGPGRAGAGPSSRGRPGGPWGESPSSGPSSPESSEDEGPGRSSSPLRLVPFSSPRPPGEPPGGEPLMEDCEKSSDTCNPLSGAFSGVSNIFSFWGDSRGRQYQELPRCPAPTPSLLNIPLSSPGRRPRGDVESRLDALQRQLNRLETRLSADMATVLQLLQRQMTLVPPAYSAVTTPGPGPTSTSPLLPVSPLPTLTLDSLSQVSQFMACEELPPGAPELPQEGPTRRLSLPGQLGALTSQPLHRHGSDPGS

[11] = Lipophilicity, log D of compound at pH 7 by HPLC analysis; type: physicochemical; conditions: buffer
Cathepsin D = Cathepsin D (Homo sapiens, UniProt P07339); assay: Inhibition of human cathepsin D
Cathepsin D, sequence (P07339 65-162 limits assumed): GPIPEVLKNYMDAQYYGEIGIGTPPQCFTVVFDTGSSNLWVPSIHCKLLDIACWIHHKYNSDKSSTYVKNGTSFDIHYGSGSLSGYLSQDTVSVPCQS
Cathepsin D, sequence (P07339 169-412 limits assumed): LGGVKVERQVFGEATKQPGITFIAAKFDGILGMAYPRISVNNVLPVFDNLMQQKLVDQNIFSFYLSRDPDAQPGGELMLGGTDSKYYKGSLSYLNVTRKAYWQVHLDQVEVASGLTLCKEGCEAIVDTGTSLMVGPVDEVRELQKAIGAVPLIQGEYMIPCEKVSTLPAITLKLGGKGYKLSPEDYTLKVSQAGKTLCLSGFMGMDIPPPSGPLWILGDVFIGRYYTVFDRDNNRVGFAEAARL

Cathepsin E = molecular target: T3, Cathepsin E (Homo sapiens, UniProt P14091); assay: Inhibition of human cathepsin E
T3 sequence (P14091 whole entry): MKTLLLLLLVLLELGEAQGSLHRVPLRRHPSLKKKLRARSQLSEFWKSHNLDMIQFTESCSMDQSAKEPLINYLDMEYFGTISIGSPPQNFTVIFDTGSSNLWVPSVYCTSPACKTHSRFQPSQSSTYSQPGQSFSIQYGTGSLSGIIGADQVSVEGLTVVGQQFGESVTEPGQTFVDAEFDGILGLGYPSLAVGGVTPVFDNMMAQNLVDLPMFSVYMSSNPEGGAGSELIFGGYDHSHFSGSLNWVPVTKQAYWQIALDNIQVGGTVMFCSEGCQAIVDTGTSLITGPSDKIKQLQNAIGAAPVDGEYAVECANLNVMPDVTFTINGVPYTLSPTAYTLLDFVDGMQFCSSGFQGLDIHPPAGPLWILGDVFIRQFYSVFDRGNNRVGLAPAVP

Renin = molecular target: T4, Renin (Homo sapiens, UniProt P00797); assay: Inhibition of human renin
T4 sequence (P00797 whole entry): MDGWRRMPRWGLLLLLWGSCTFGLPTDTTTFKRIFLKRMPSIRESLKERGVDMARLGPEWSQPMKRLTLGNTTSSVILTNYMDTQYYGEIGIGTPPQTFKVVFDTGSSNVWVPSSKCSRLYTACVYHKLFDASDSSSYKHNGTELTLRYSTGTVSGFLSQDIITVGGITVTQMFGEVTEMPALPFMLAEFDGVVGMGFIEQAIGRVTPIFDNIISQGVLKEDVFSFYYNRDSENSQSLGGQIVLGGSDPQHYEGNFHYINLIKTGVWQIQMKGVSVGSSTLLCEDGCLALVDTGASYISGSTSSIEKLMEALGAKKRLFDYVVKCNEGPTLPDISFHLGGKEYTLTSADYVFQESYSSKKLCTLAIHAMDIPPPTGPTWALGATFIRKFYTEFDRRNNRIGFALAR

[12] = molecular target: Voltage-dependent L-type calcium channel subunit alpha-1C (Homo sapiens, UniProt Q13936); assay: Inhibition of CAV1.2 (unknown origin)
[13] = molecular target: Sodium channel protein type 2 subunit alpha (Homo sapiens, UniProt Q99250); assay: Inhibition of NaV1.2 (unknown origin)
Sodium channel protein type 2 subunit alpha, sequence (Q99250 whole entry): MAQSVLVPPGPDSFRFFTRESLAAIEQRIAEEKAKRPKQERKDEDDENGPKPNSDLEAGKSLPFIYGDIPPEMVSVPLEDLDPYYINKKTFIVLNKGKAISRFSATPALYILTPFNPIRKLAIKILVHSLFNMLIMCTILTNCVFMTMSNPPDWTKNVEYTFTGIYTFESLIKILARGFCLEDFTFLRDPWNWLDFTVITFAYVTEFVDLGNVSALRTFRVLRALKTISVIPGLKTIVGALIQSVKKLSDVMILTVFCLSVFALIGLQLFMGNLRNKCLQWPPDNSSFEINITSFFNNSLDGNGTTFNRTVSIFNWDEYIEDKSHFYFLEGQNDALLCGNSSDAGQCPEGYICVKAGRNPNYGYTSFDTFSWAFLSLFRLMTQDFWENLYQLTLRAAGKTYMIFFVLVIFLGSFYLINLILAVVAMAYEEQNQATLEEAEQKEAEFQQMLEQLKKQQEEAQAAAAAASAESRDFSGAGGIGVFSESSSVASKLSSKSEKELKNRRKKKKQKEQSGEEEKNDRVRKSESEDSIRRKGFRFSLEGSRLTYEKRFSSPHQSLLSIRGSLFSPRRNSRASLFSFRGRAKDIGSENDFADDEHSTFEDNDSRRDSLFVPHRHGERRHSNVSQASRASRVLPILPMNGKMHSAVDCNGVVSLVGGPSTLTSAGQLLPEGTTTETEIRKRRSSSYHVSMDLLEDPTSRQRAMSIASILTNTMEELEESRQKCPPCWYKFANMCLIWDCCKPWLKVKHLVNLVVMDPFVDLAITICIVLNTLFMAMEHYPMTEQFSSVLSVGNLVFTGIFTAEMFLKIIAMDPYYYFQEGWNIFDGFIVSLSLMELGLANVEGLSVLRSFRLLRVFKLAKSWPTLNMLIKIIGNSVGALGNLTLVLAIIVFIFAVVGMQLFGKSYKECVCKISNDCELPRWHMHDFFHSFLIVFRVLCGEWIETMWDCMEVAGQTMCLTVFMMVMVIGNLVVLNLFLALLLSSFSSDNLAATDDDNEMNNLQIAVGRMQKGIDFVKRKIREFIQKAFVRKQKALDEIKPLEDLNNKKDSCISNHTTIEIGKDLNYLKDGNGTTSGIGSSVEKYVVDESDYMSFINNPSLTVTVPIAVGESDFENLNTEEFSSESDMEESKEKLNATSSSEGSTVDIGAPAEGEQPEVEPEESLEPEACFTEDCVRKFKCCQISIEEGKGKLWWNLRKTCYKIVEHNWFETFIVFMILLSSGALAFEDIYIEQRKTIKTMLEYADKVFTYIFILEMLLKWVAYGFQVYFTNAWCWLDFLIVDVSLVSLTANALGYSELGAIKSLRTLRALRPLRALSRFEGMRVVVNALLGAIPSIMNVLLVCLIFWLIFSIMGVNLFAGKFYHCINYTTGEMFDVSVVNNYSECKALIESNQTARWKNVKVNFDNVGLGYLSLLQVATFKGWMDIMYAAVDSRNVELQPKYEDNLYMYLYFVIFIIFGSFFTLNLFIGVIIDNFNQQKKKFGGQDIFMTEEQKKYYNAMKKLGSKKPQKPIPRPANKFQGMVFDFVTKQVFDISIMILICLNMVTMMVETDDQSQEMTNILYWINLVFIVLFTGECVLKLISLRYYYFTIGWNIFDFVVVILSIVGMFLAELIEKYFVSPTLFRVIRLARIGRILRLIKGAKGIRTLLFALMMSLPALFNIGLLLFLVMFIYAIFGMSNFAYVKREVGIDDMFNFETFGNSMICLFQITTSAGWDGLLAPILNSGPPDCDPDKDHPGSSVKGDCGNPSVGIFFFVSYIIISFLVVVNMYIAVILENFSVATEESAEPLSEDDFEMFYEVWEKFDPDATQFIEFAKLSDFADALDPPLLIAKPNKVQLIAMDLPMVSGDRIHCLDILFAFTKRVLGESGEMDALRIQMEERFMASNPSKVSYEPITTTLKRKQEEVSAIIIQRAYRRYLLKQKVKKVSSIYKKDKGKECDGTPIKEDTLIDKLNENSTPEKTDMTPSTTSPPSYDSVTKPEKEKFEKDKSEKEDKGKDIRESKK

[14] = Drug concentration in rat plasma at 10 mg/kg, po after 3 hrs; type: ADME, organism-based
[15] = Drug concentration in rat CSF at 10 mg/kg, po after 3 hrs; type: ADME, organism-based, Cerebrospinal fluid; conditions: read-out: Ct
[16] = molecular target: T2, Voltage-gated inwardly rectifying potassium channel KCNH2; assay: Inhibition of human ERG expressed in HEK cells by voltage clamp assay; type: toxicity, cell-based
[17] = Free drug concentration in human plasma; type: ADME, cell-free
[18] = Free drug concentration in cynomolgus monkey plasma; type: ADME, cell-free, Macaca fascicularis
[19] = Free drug concentration in rat plasma; type: ADME, cell-free
[20] = Ratio of drug level in brain to plasma in rat; type: ADME; conditions: read-out: BPR

For COc1cnc(C(=O)Nc2ccc(F)c([C@]3(C)CS(=O)(=O)C(C)(C)C(N)=N3)c2)cn1, the ED50 (Rattus norvegicus [1]) was 1.2 mg/kg, the EC50 (Rattus norvegicus [2]) was 15 nM and the ED50 (Rhesus monkey [3]) was 0.3 mg/kg. For the same molecule, the EC50 (Rhesus monkey [4]) was 23 nM.
For COc1cnc(C(=O)Nc2ccc(F)c([C@]3(C)CS(=O)(=O)[C@](C)(C(F)F)C(=N)N3)c2)cn1, the Ki (Beta-secretase 1 [5]) was 12 nM and the IC50 (Beta-secretase 1 [6]) was 171 nM.
C[C@@]1(c2nc(NC(=O)c3ccc(C#N)cn3)ccc2F)CS(=O)(=O)[C@](C)(CF)C(=N)N1 gave a Ki (Beta-secretase 1 [5]) of 3 nM and an IC50 (Beta-secretase 1 [6]) of 7 nM.
CC1(C)C(=N)N[C@](C)(c2nc(NC(=O)c3ccc(C#N)cn3)ccc2F)CS1(=O)=O gave an Activity (Rattus norvegicus [7]) of 88%.
With Cc1cc(C#N)cnc1C(=O)Nc1ccc(F)c([C@]2(C)CS(=O)(=O)[C@@](C)(CF)C(=N)N2)n1 the Ki (Beta-secretase 1 [5]) was 1 nM, the IC50 (Beta-secretase 1 [6]) was 1 nM and the Activity (Rattus norvegicus [7]) was 92%.
C[C@]1(CF)C(=N)N[C@](C)(c2nc(NC(=O)c3ccc(C#N)cn3)ccc2F)CS1(=O)=O showed a Ki (Beta-secretase 1 [5]) of 2 nM and an IC50 (Beta-secretase 1 [6]) of 3 nM.
Molecule Cc1cc(C#N)cnc1C(=O)Nc1ccc(F)c([C@]2(C)CS(=O)(=O)[C@](C)(C(F)F)C(=N)N2)n1 has a Ki (Beta-secretase 1 [5]) of 3 nM, an IC50 (Beta-secretase 1 [6]) of 11 nM and an Activity (Rattus norvegicus [7]) of 80%.
COc1cnc(C(=O)Nc2ccc(F)c([C@]3(C)CS(=O)(=O)[C@](C)(CF)C(=N)N3)c2)cn1 showed a Ki (Beta-secretase 1 [5]) of 4 nM and an IC50 (Beta-secretase 1 [6]) of 14 nM.
With C[C@@]1(C(F)F)C(=N)N[C@](C)(c2nc(NC(=O)c3ccc(C#N)cn3)ccc2F)CS1(=O)=O the Ki (Beta-secretase 1 [5]) was 10 nM, the IC50 (Beta-secretase 1 [6]) was 78 nM and the pKa [8] was 5.95. The efflux ratio at 1 µM (MDR1 (human)) was 0.8, the efflux ratio at 1 µM (MDR1 (rat)) was 3.7 and the Papp [9] was 32.7 ×10⁻⁶ cm/s. For the same molecule, the IC50 [10] was 24200 nM and the logD [11] was 2.5.
Molecule Cc1cc(C#N)cnc1C(=O)Nc1ccc(F)c([C@]2(C)CS(=O)(=O)[C@@](C)(C(F)F)C(=N)N2)n1 has a Ki (Beta-secretase 1 [5]) of 1 nM, an IC50 (Beta-secretase 1 [6]) of 3 nM and an Activity (Rattus norvegicus [7]) of 91%. For the same molecule, the ED50 (Rattus norvegicus [1]) was 3 mg/kg, the EC50 (Rattus norvegicus [2]) was 130 nM and the ED50 (Rhesus monkey [3]) was < 3 mg/kg. For the same molecule, the EC50 (Rhesus monkey [4]) was 20 nM, the Ki (Cathepsin D) was 5880 nM and the Ki (Cathepsin E) was > 30500 nM. For the same molecule, the Ki (Renin) was > 19100 nM, the IC50 [12] was 7060 nM and the IC50 [13] was > 30000 nM.
With Cc1cc(C#N)cnc1C(=O)Nc1ccc(F)c([C@]2(C)CS(=O)(=O)[C@](C)(CF)C(=N)N2)n1 the Ki (Beta-secretase 1 [5]) was 2 nM, the IC50 (Beta-secretase 1 [6]) was 2 nM and the Activity (Rattus norvegicus [7]) was 68%.
In the case of COc1cnc(C(=O)Nc2ccc(F)c([C@]3(C)CS(=O)(=O)[C@@](C)(C(F)F)C(=N)N3)c2)cn1, the Ki (Beta-secretase 1 [5]) is reported as 3 nM and the IC50 (Beta-secretase 1 [6]) is reported as 30 nM.
For C[C@@]1(c2nc(NC(=O)c3ccc(C#N)cn3)ccc2F)CS(=O)(=O)[C@@](C)(C(F)F)C(=N)N1, the Ki (Beta-secretase 1 [5]) was 3 nM, the IC50 (Beta-secretase 1 [6]) was 11 nM and the pKa [8] was 6.19. For the same molecule, the efflux ratio at 1 µM (MDR1 (human)) was 1, the efflux ratio at 1 µM (MDR1 (rat)) was 8.6 and the Papp [9] was 28.6 ×10⁻⁶ cm/s. It also gave an Activity (Rattus norvegicus [7]) of 80%, an IC50 [10] of 2420 nM and a logD [11] of 2.3. The concentration at 3 h [14] was 154 nM and the concentration at 3 h [15] was 8 nM.
COc1cnc(C(=O)Nc2ccc(F)c([C@]3(C)CS(=O)(=O)[C@@](C)(CF)C(=N)N3)c2)cn1 gave a Ki (Beta-secretase 1 [5]) of 5 nM and an IC50 (Beta-secretase 1 [6]) of 12 nM.
Molecule CN1C(N)=N[C@](C)(c2cc(NC(=O)c3ccc(F)cn3)ccc2F)CS1(=O)=O [VERUBECESTAT] has a pKa [8] of 7.5, a Papp [9] of 23 ×10⁻⁶ cm/s and an IC50 [16] of 2200 nM. For the same molecule, the fraction unbound [17] was 0.24, the fraction unbound [18] was 0.18 and the fraction unbound [19] was 0.21. For the same molecule, the ED50 (Rattus norvegicus [1]) was 0.69 mg/kg, the EC50 (Rattus norvegicus [2]) was 110 nM and the Kp [20] was 0.23. For the same molecule, the ED50 (Rhesus monkey [3]) was < 3 mg/kg and the EC50 (Rhesus monkey [4]) was 41 nM.
